Source: PubChem BioAssay AID1963450 (Molecular Pharmacology Branch, DTP, NCI, 2024)
One block for each compound: values may come before it.

System: 556581-035-R-J1-PDC complex spheroid growth
Assay: Anticancer human tumor 556581-035-R-J1-PDC patient-derived ovarian carcinoma cell line growth inhibition [Asc]
Details: for IC50: curve of first compound; for viability, T/C: stronger effect = lower value
Protocol: Multicellular complex tumor spheroid response to apoptosis pathway targeting inhibitors Alrizomadlin, Pelcitoclax, and Dasminapant in combination with a variety of drugs and investigational agents in selected tumor cell lines
The MDM2 inhibitor alrizomadlin, the Bcl-2/Bcl-xL inhibitor pelcitoclax, and the IAPs inhibitor dasminapant were evaluated both individually and in combination with standard of care and investigational anticancer small molecules within a complex spheroid model of solid tumors. . Complex spheroids include a stromal component modeled by human endothelial cells (HUVEC) and fibroblasts modeled by human mesenchymal stem cells (MSCs). The concentration ranges selected for each drug and investigational agent were based upon clinically achievable concentrations if the clinical Cmax of the agent was known.
Compounds. The drugs and investigational agents: alrizomadlin (APG-115; NSC831270), pelcitoclax (APG-1252; NSC835773), dasminapant (APG-1387;NSC834197), TAK-243 (NSC785004), copanlisib (NSC809693), olaparib (NSC753686), talazoparib (NSC767125), cobimetinib (NSC 768068), eltanexor (KPT-8602, NSC 794443), abemaciclib (NSC 768073), sotorasib (NSC818433), adagrasib (NSC 831453), MRTX-1133 (NSC 836407), Iadademestat (ORY1001, NSC 806812), and RMC-4630 (NSC839698), were obtained from the NCI Developmental Therapeutics Program Chemical Repository. The FDA-approved anticancer drug set is available from the Developmental Therapeutics Program at https://dtp.cancer.gov/organization/dscb/obtaining/available plates.htm. […] The stock solutions were prepared in dimethyl sulfoxide (DMSO, Sigma-Aldrich, St. Louis, MO, cat. D2650) at 800-fold the tested concentration and stored at -70 degrees C prior to their use. All drugs and investigational agents were tested over a range starting from a high concentration at or near the clinical Cmax and decreasing in half-log increments. If the clinical Cmax for an agent had not been determined, the highest concentration tested was 10 microM.
The patient-derived cancer (PDC) cell lines include five colon adenocarcinomas: 186277-243-T-J2-PDC, 616215-338-R-J1-PDC, 439559-082-T-J2-PDC, 463943-066-T-J2-PDC, and 519858-162-T-J1-PDC; three pancreatic carcinomas: 323965-272-R-J2-PDC, 521955-158-R6-J3-PDC, and 521955-158-R2-J5-PDC; two uterine sarcomas: 327498-152-R-J2-PDC and 993429-296-R-J1-PDC; two rhabdomyosarcomas: 755483-174-R-J1-PDC and 772245-204-R-J1-PDC; two soft tissue sarcomas: 126254-015-R-J1-PDC and 494315-158-R-J1-PDC; two malignant fibrous histiocytomas: 317291-083-R-J1-PDC and 596521-263-R-J1-PDC; two breast carcinomas: 171881-019-R-J1-PDC and 885512-296-R-J2-PDC; and one ovarian carcinoma: 6556581-035-R-J-PDC were obtained from the NCI PDMR, (https://pdmr.cancer.gov). The established cell lines HSSY-2 synovial sarcoma (RRID:CVCL 8719), SYO-1 synovial sarcoma (RRID:CVCL_7146), MPNST malignant peripheral neural sheath tumor were obtained from the Sloan Kettering Institute. The following established cell lines were purchased from the American Type Culture Collection (ATCC, Manassas, VA), Sor the received from the NCI repository:, PANC-1 pancreatic carcinoma (CRL-1469, RRID:CVCL_0480), OVCAR-5 ovarian carcinoma (RRID:CVCL_1628), OVCAR-8 ovarian carcinoma (RRID:CVCL_1629), , MCF-7 breast carcinoma (CRL-12584, RRID:CVCL_0031), MDA-MB-231 breast carcinoma (CRL-12532, RRID:CVCL_0062), NCI-H1876 small cell lung carcinoma (CRL-5902, RRID:CVCL_1503), NCI-H510A small cell lung carcinoma (HTB-184, RRID:CVCL_1565), NCI-H1417 (CRL-5869, RRID:CVCL_1469), and NCI-H196 small cell lung carcinoma (CRL-5823, RRID:CVCL_1509). Dr. Peter Houghton (Greehey Children's Cancer Research Institute, University of Texas Health Science Center, San Antonio, TX) provided Rh-18 rhabdomyosarcoma (RRID:CVCL_1659). Pooled donor human umbilical vein endothelial cells (HUVEC, Lonza, cat. CC-2519) and human mesenchymal stem cells (hMSC, Lonza, cat. PT-2501) were purchased from Lonza (Walkersville, MD).
Cell Culture. […]

[1] = second compound 0.03 µM, first compound 0.00316 µM
[2] = second compound 0.03 µM, first compound 0.01 µM
[3] = second compound 0.03 µM, first compound 0.0316 µM
[4] = second compound 0.03 µM, first compound 0.1 µM
[5] = second compound 0.0949 µM, first compound 0.00316 µM
[6] = second compound 0.0949 µM, first compound 0.01 µM
[7] = second compound 0.0949 µM, first compound 0.0316 µM
[8] = second compound 0.0949 µM, first compound 0.1 µM
[9] = second compound 0.3 µM, first compound 0.00316 µM
[10] = second compound 0.3 µM, first compound 0.01 µM
[11] = second compound 0.3 µM, first compound 0.0316 µM
[12] = second compound 0.3 µM, first compound 0.1 µM
[13] = second compound 0.949 µM, first compound 0.00316 µM
[14] = second compound 0.949 µM, first compound 0.01 µM
[15] = second compound 0.949 µM, first compound 0.0316 µM
[16] = second compound 0.949 µM, first compound 0.1 µM
[17] = second compound 3 µM, first compound 0.00316 µM
[18] = second compound 3 µM, first compound 0.01 µM
[19] = second compound 3 µM, first compound 0.0316 µM
[20] = second compound 3 µM, first compound 0.1 µM
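Further: spheroids exposed to agents for 7 days before viability read.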

IC50 (second compound 0.03 µM): > 1000 nM
IC50 (second compound 0.0949 µM): > 1000 nM
IC50 (second compound 0.3 µM): > 1000 nM
IC50 (second compound 0.949 µM): > 1000 nM
IC50 (second compound 3 µM): > 1000 nM
SMILES: CCN1CCN(Cc2ccc(Nc3ncc(F)c(-c4cc(F)c5nc(C)n(C(C)C)c5c4)n3)nc2)CC1 + CCN1C(C(=O)NC23CCC(C(=O)O)(CC2)CC3)C(c2cccc(Cl)c2F)C2(C(=O)Nc3cc(Cl)ccc32)C12CCCCC2
viability, T/C [1]: 91.6%
viability, T/C [2]: 84.4%
viability, T/C [3]: 94%
viability, T/C [4]: 81.8%
viability, T/C (second compound 0.03 µM, first compound 0.316 µM): 102%
viability, T/C (second compound 0.03 µM, first compound 1 µM): 88%
viability, T/C [5]: 107%
viability, T/C [6]: 98%
viability, T/C [7]: 95.2%
viability, T/C [8]: 106%
viability, T/C (second compound 0.0949 µM, first compound 0.316 µM): 98.2%
viability, T/C (second compound 0.0949 µM, first compound 1 µM): 87.2%
viability, T/C [9]: 102%
viability, T/C [10]: 82.5%
viability, T/C [11]: 96.8%
viability, T/C [12]: 99.7%
viability, T/C (second compound 0.3 µM, first compound 0.316 µM): 92.3%
viability, T/C (second compound 0.3 µM, first compound 1 µM): 88.4%
viability, T/C [13]: 84.9%
viability, T/C [14]: 88.5%
viability, T/C [15]: 92.9%
viability, T/C [16]: 92.9%
viability, T/C (second compound 0.949 µM, first compound 0.316 µM): 81.1%
viability, T/C (second compound 0.949 µM, first compound 1 µM): 91.6%
viability, T/C [17]: 81.7%
viability, T/C [18]: 83.3%
viability, T/C [19]: 82.6%
viability, T/C [20]: 83.5%
viability, T/C (second compound 3 µM, first compound 0.316 µM): 87.2%
viability, T/C (second compound 3 µM, first compound 1 µM): 86.2%

IC50 (second compound 0.03 µM): > 300 nM
IC50 (second compound 0.0949 µM): > 300 nM
IC50 (second compound 0.3 µM): > 300 nM
IC50 (second compound 0.949 µM): > 300 nM
IC50 (second compound 3 µM): > 300 nM
SMILES: NC(=O)C(=Cn1cnc(-c2cc(C(F)(F)F)cc(C(F)(F)F)c2)n1)c1cncnc1 + CCN1C(C(=O)NC23CCC(C(=O)O)(CC2)CC3)C(c2cccc(Cl)c2F)C2(C(=O)Nc3cc(Cl)ccc32)C12CCCCC2
viability, T/C (second compound 0.03 µM, first compound 0.000949 µM): 81%
viability, T/C (second compound 0.03 µM, first compound 0.003 µM): 96.2%
viability, T/C (second compound 0.03 µM, first compound 0.00949 µM): 87.3%
viability, T/C (second compound 0.03 µM, first compound 0.03 µM): 83.1%
viability, T/C (second compound 0.03 µM, first compound 0.0949 µM): 86.6%
viability, T/C (second compound 0.03 µM, first compound 0.3 µM): 86.6%
viability, T/C (second compound 0.0949 µM, first compound 0.000949 µM): 97.6%
viability, T/C (second compound 0.0949 µM, first compound 0.003 µM): 99.7%
viability, T/C (second compound 0.0949 µM, first compound 0.00949 µM): 92.9%
viability, T/C (second compound 0.0949 µM, first compound 0.03 µM): 86.7%
viability, T/C (second compound 0.0949 µM, first compound 0.0949 µM): 90.8%
viability, T/C (second compound 0.0949 µM, first compound 0.3 µM): 101%
viability, T/C (second compound 0.3 µM, first compound 0.000949 µM): 103%
viability, T/C (second compound 0.3 µM, first compound 0.003 µM): 91.6%
viability, T/C (second compound 0.3 µM, first compound 0.00949 µM): 94.9%
viability, T/C (second compound 0.3 µM, first compound 0.03 µM): 87.3%
viability, T/C (second compound 0.3 µM, first compound 0.0949 µM): 86.7%
viability, T/C (second compound 0.3 µM, first compound 0.3 µM): 97.1%
viability, T/C (second compound 0.949 µM, first compound 0.000949 µM): 88.4%
viability, T/C (second compound 0.949 µM, first compound 0.003 µM): 108%
viability, T/C (second compound 0.949 µM, first compound 0.00949 µM): 92.5%
viability, T/C (second compound 0.949 µM, first compound 0.03 µM): 101%
viability, T/C (second compound 0.949 µM, first compound 0.0949 µM): 90%
viability, T/C (second compound 0.949 µM, first compound 0.3 µM): 91.6%
viability, T/C (second compound 3 µM, first compound 0.000949 µM): 83.5%
viability, T/C (second compound 3 µM, first compound 0.003 µM): 87.9%
viability, T/C (second compound 3 µM, first compound 0.00949 µM): 81.7%
viability, T/C (second compound 3 µM, first compound 0.03 µM): 87.7%
viability, T/C (second compound 3 µM, first compound 0.0949 µM): 78.3%
viability, T/C (second compound 3 µM, first compound 0.3 µM): 61.2%

IC50 (second compound 0.03 µM): > 100 nM
IC50 (second compound 0.0949 µM): > 100 nM
IC50 (second compound 0.3 µM): > 100 nM
IC50 (second compound 0.949 µM): > 100 nM
IC50 (second compound 3 µM): > 100 nM
SMILES: NC1CCC(NC2CC2c2ccccc2)CC1 (stereo not given) + CCN1C(C(=O)NC23CCC(C(=O)O)(CC2)CC3)C(c2cccc(Cl)c2F)C2(C(=O)Nc3cc(Cl)ccc32)C12CCCCC2
viability, T/C (second compound 0.03 µM, first compound 0.000316 µM): 105%
viability, T/C (second compound 0.03 µM, first compound 0.001 µM): 103%
viability, T/C [1]: 107%
viability, T/C [2]: 98.7%
viability, T/C [3]: 97.7%
viability, T/C [4]: 84.5%
viability, T/C (second compound 0.0949 µM, first compound 0.000316 µM): 113%
viability, T/C (second compound 0.0949 µM, first compound 0.001 µM): 105%
viability, T/C [5]: 100%
viability, T/C [6]: 93%
viability, T/C [7]: 107%
viability, T/C [8]: 103%
viability, T/C (second compound 0.3 µM, first compound 0.000316 µM): 108%
viability, T/C (second compound 0.3 µM, first compound 0.001 µM): 100%
viability, T/C [9]: 105%
viability, T/C [10]: 100%
viability, T/C [11]: 97.7%
viability, T/C [12]: 96.6%
viability, T/C (second compound 0.949 µM, first compound 0.000316 µM): 107%
viability, T/C (second compound 0.949 µM, first compound 0.001 µM): 92.1%
viability, T/C [13]: 82.9%
viability, T/C [14]: 106%
viability, T/C [15]: 95.2%
viability, T/C [16]: 96.5%
viability, T/C (second compound 3 µM, first compound 0.000316 µM): 85.7%
viability, T/C (second compound 3 µM, first compound 0.001 µM): 101%
viability, T/C [17]: 89.1%
viability, T/C [18]: 85.1%
viability, T/C [19]: 92.8%
viability, T/C [20]: 92.7%
